Experimental data taken from US10808005B2, “Ligand for orphan nuclear receptor Nur77 and uses thereof” (IXMEDICINE (XIAMEN) BIOLOGICAL TECHNOLOGY COMPANY LIMITED, priority 2016, dated 2020).

How the values were obtained:
[1] = tested on: BT474, ZR-75-1, BT549, HCC1937, HS578T, MCF-7, and T47D; experiment: Inhibition rate on seven breast cancer cells; assay type: cell-based; conditions: various breast cancer cells, FIG. 11C
tumors [2] = experiment: Tumor inhibition in Nur77-knocked-out PYVT mice; assay type: in vivo, Nur77-knocked-out type; conditions: Nur77-deficient; YXY101 5 mg/kg or XS0284 10 mg/kg intragastric, two weeks
IκBα [3] = experiment: Immunoblot of IκBα in MEF cells; assay type: cell-based; conditions: MEF cells expressing Nur77
From the text: (§1) The above results were also confirmed by using MEF cells and Nur77−/−MEF cells (i.e., MEF cells not expressing Nur77). […] Subsequently, IκBα in the cells was detected by WB.

mTOR signaling pathway = experiment: Immunoblot of p-mTOR, p-P70S6K, p-S6 in TNFα-treated starved MDA-MB-231 cells; assay type: cell-based
IκBα [4] = experiment: Immunoblot of IκBα in Nur77−/−MEF cells; assay type: cell-based
From the text: as §1

breast cancer = experiment: PYVT mice under LFD or HFD feeding, intragastric administration; assay type: in vivo, WT mice and PYVT mice
From the text: The above conclusions can be reflected in the size of tumor tissue and the change of body weight of mice.

[5] = Acute toxicity model mice, histopathology; assay type: in vivo
From the text: The tissue morphologies of the heart, liver, small intestine, white fat and kidney were observed by Histopathological method.

[6] = tested on: IκBα and phosphorylated IKKα/β; experiment: Immunoblot of IκBα and phosphorylated IKKα/β in TNFα-treated HepG2 cells; assay type: cell-based; conditions: TNFα 20 ng/mL 30 minutes
From the text: IκBα and phosphorylated IKKα/β in the cells were then detected by WB.
In addition, HepG2 cells were also applied in the experiment. […] IκBα in the cells was then detected by WB.

tumors [7] = experiment: Tumor inhibition in wild type PYVT mice; assay type: in vivo; conditions: YXY101 5 mg/kg or XS0284 10 mg/kg intragastric, two weeks
[8] = single intragastric injection 200 mg/kg
[9] = single intraperitoneal injection 20 mg/kg

## Cc1c(O)c(O)cc2c1C(S(=O)(=O)[O-])C=C1[C@@]2(C)CC[C@@]2(C)[C@@H]3C[C@](C)(C(=O)O)CC[C@]3(C)CC[C@]12C.[Na+] (stereo partly drawn) [XS0284]
[1]
  inhibitory effects on proliferation compared with YXY101: close or even stronger than that of YXY101
Tumors [2]
  tumor inhibition (tumor tissue size): neither of the two compounds could exert an inhibitory effect
IκBα [3]
  TNFα-induced degradation of IκBα: able to inhibit TNFα-induced degradation of IκBα
mTOR signaling pathway
  inhibitory effect on P-mTOR, P-p70S6K and P—S6: strong inhibitory effect
IκBα [4]
  TNFα-induced degradation of IκBα: lost the ability to inhibit IκBα degradation
Breast cancer; high-fat feeding conditions
  inhibition effect on breast cancer compared with YXY101: stronger than that of YXY101
Breast cancer; low-fat feeding conditions
  inhibitory effect on breast cancer compared with YXY101: close to that of YXY101
Breast cancer; low-fat or high-fat feeding conditions
  development of breast cancer: can significantly inhibit the development of breast cancer
[5]; intragastric injection group
  toxic effect compared with YXY101: weaker toxic effect on the liver and small intestine than YXY101
[5]; intraperitoneal injection group
  toxicity compared with YXY101: less toxicity to kidney and adipose than YXY101
[5]; overall
  acute toxicity to animals compared with YXY101: less acute toxicity to animals than YXY101
[5]; [8]
  adipose tissue morphology: the adipose tissue cells had clear boundaries, and were neatly arranged, and the fiber breakage was reduced
  heart tissue morphology: relatively clear boundaries, the myocardial fibers were arranged relatively neatly and had obvious boundaries
  liver tissue morphology: the hepatocytes in the liver tissue had obvious boundaries and clear structure
  small intestine tissue morphology: the intestinal tissue had clear boundaries, the cells were plump, the intestinal villi were neatly arranged and had obvious boundaries
[5]; [9]
  adipose tissue morphology: the adipose tissue cells had clear boundaries and were arranged neatly, the fiber breakage was reduced
  heart tissue morphology: relatively clear boundaries, the myocardial fibers were relatively neatly arranged and had obvious boundaries
  kidney tissue morphology: the kidney tissue had clear glomerular boundaries, the cells were full, and there was a small amount of inflammatory cell infiltration
  liver tissue morphology: the hepatocytes in the liver tissue had obvious boundaries and clear structure
[6]
  TNFα-induced degradation of IκBα: capable of inhibiting TNFα-induced degradation of IκBα
Tumors [7]
  tumor inhibition (tumor tissue size): effective in inhibiting tumors in wild-type mice
